# Experiments:
# Conditions in all cases: 72 h
# Caco-2 [1] = experiment: cell viability relative to DMSO; higher = less toxic
# Calu-3 [2] = experiment: as above
# HepG2 [3] = experiment: as above
# U2OS [4] = experiment: as above
# Vero E6 [5] = experiment: as above
# Caco-2 [6] = experiment: relative viability EC50 (midpoint between 100% and the lowest measured viability); higher = less toxic
# Calu-3 [7] = experiment: as above
# HepG2 [8] = experiment: as above
# U2OS [9] = experiment: as above
# Vero E6 [10] = experiment: as above
# Caco-2 [11] = experiment: drug sensitivity score (DSS) for viability; higher = more toxic; extreme values may be limits of the assay
# Calu-3 [12] = experiment: as above
# HepG2 [13] = experiment: as above
# U2OS [14] = experiment: as above
# Vero E6 [15] = experiment: as above
SMILES,cell viability (Caco-2 [1]; 1 nM) [%],cell viability (Caco-2 [1]; 10 nM) [%],cell viability (Caco-2 [1]; 100 nM) [%],cell viability (Caco-2 [1]; 1000 nM) [%],cell viability (Caco-2 [1]; 10000 nM) [%],cell viability (Calu-3 [2]; 1 nM) [%],cell viability (Calu-3 [2]; 10 nM) [%],cell viability (Calu-3 [2]; 100 nM) [%],cell viability (Calu-3 [2]; 1000 nM) [%],cell viability (Calu-3 [2]; 10000 nM) [%],cell viability (HepG2 [3]; 1 nM) [%],cell viability (HepG2 [3]; 10 nM) [%],cell viability (HepG2 [3]; 100 nM) [%],cell viability (HepG2 [3]; 1000 nM) [%],cell viability (HepG2 [3]; 10000 nM) [%],cell viability (U2OS [4]; 1 nM) [%],cell viability (U2OS [4]; 10 nM) [%],cell viability (U2OS [4]; 100 nM) [%],cell viability (U2OS [4]; 1000 nM) [%],cell viability (U2OS [4]; 10000 nM) [%],cell viability (Vero E6 [5]; 1 nM) [%],cell viability (Vero E6 [5]; 10 nM) [%],cell viability (Vero E6 [5]; 100 nM) [%],cell viability (Vero E6 [5]; 1000 nM) [%],cell viability (Vero E6 [5]; 10000 nM) [%],relative viability EC50 (Caco-2 [6]) [µM],relative viability EC50 (Calu-3 [7]) [µM],relative viability EC50 (HepG2 [8]) [µM],relative viability EC50 (U2OS [9]) [µM],relative viability EC50 (Vero E6 [10]) [µM],drug sensitivity score (Caco-2 [11]),drug sensitivity score (Calu-3 [12]),drug sensitivity score (HepG2 [13]),drug sensitivity score (U2OS [14]),drug sensitivity score (Vero E6 [15])
CC(C)C[C@@H](N)C1(c2ccc(Cl)cc2)CCC1,101,103,108,96,90.3,96,104,109,89.9,102,104,99.9,110,103,104,98.9,98.3,94.2,99,94.1,106,101,100,98.8,105,> 10,> 10,> 10,> 10,> 10,0,0,0,0,0
CC(C)OC(=O)C1=CN(C(=O)c2ccc(F)c(F)c2)CC(C)(C)c2c1[nH]c1ccccc21,84.5,99.7,86.1,95.2,89.3,104,91.3,103,96.5,97.8,95.3,102,97.3,92.1,112,98.3,99.6,95.9,100,96.3,101,97.6,95.4,98.7,98.9,> 10,> 10,> 10,> 10,> 10,0,0,0,0,0
CCC[C@H](N[C@H]1CCc2cc(F)cc(F)c2C1)C(=O)Nc1cn(C(C)(C)CNCC(C)(C)C)cn1,102,91.8,102,98.2,86.1,95,105,108,103,84.4,105,104,104,93.9,80.1,102,94.7,99.7,92.4,87.9,99.7,104,107,95.5,89.1,> 10,> 10,> 10,> 10,> 10,0.3,0.2,1.3,0.2,0.1
CCOC(=O)C(=O)Nc1cccc(OC)c1C(N)=O,83.3,96.6,103,104,102,83.7,95.3,91.2,97.5,88.8,102,96.7,93.2,102,104,98.9,98.9,96,101,97.6,103,94.9,108,105,106,> 10,> 10,> 10,> 10,> 10,0,0,0,0,0
CC[C@H](NC(=O)c1c(C)c(-c2ccccc2)nc2ccccc12)c1ccccc1,106,98.4,101,103,91.2,95.8,95.2,100,96.7,87.7,99,108,95.4,102,93.4,104,101,101,98.7,102,103,109,102,103,96.7,> 10,> 10,> 10,> 10,> 10,0,0.2,0,0,0
CN(C)CCCCSC(=N)N,104,111,99.6,105,97.9,90.6,89.5,89,91.8,90.1,104,103,90.7,93,95.1,94,92.8,100,94.7,97.8,104,108,101,105,99.3,> 10,> 10,> 10,> 10,> 10,0,0.8,0,0,0
CN(C)[C@@H]1CCc2[nH]c3ccc(NC(=O)c4ccc(F)cc4)cc3c2C1,96,103,93.5,99.3,86.6,105,93.2,105,110,84.2,101,99.3,95.8,89.3,94.6,97.1,104,91.9,101,96.1,106,98.9,100,96.1,97.2,> 10,> 10,> 10,> 10,> 10,0.2,0.1,0.1,0,0
COc1cccc(NC(=O)/C=C/c2ccc(Cl)cc2)c1,98.2,100,98.5,88.3,81,104,99.4,93.3,108,84.2,102,103,99.8,98.3,105,93,100,96.3,97.9,92.8,102,96.4,97.2,95,107,> 10,> 10,> 10,> 10,> 10,1.4,0.1,0,0,0
CSc1cc2c(cc1C(F)(F)F)N(C(=O)Nc1cccnc1)CC2,103,101,95.5,97.5,97.9,106,83.3,93.2,91.2,107,109,95.6,85,99,94.7,100,99.6,108,98.9,101,102,104,96.5,102,102,> 10,> 10,> 10,> 10,> 10,0,0,0,0,0
C[C@H](Cc1ccc(OCC(=O)O)cc1)NC[C@H](O)c1cccc(Cl)c1,98.6,89.6,105,94.8,103,97.9,101,103,100,90.7,104,111,98.4,99.8,97.7,98,93.3,96,102,99.8,97.6,95.9,91.7,92.3,105,> 10,> 10,> 10,> 10,> 10,0,0,0,0,0
Cc1ccc(-c2ncc[nH]2)cc1NC(=O)c1ccc(OCc2ccccn2)cc1,101,101,105,96.7,85.2,91,97.8,96.6,89.1,101,103,103,97.7,96,94.7,96.5,98,100,97.1,99.2,100,104,99.2,99.2,90,> 10,> 10,> 10,> 10,> 10,0.5,0,0,0,0
Cc1cnc(-c2cc(N3CCN(C(=O)CCS(C)(=O)=O)CC3)ncc2Cl)c(C)c1,103,90.2,102,99.1,106,104,105,92.8,110,109,99.9,93.2,98.6,101,113,92.1,101,98.1,105,101,94.5,93.4,95.4,95.3,102,> 10,> 10,> 10,> 10,> 10,0,0,0,0,0
O=C(NC1CCC1)c1ccc(C#Cc2cccc(F)c2)nc1,92.4,102,96.5,98.9,95.4,96.1,98.6,98.8,103,90.7,91.7,93.9,89.4,85.8,93,104,102,96.3,100,91.6,98.6,98.5,96.8,90,92.1,> 10,> 10,> 10,> 10,> 10,0,0,0,0,0
O=C1CC2(CCCC2)CC(=O)N1CCNC[C@H]1COc2ccccc2O1,95.4,89,99.9,98.5,101,92.5,107,98.4,107,96.3,108,108,93.2,110,98.3,103,97,97.2,96.3,101,99.4,101,106,92.6,97.8,> 10,> 10,> 10,> 10,> 10,0,0,0,0,0
